Source: the supplement of paper PMC13207355
Structures can show the parent of a compound that is named as a salt.

Columns and labels:
Conditions in all cases: exposure time: 72 h
E28 [1] = patient-derived glioblastoma stem cells of classical subtype; assay: phenotypic distance (Euclidean, principal components) from DMSO controls (arbitrary units); higher = stronger morphological change
E31 [2] = patient-derived glioblastoma stem cells of proneural subtype; assay: as above
E21 [3] = patient-derived glioblastoma stem cells of mesenchymal subtype; assay: as above
E57 [4] = patient-derived glioblastoma stem cells of mesenchymal subtype; assay: as above
E34 [5] = patient-derived glioblastoma stem cells of proneural subtype; assay: as above
FT3469 [6] = normal neural stem cell line; assay: as above
E13 [7] = patient-derived glioblastoma stem cells of classical subtype; assay: as above
E28 [8] = assay: surviving fraction (nuclei count normalised to DMSO); higher = more cells surviving (less toxic)
E31 [9] = assay: as above
E21 [10] = assay: as above
E57 [11] = assay: as above
E34 [12] = assay: as above
FT3469 [13] = assay: as above
E13 [14] = assay: as above
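Throughout, for phenotypic distance (Euclidean, principal components) from DMSO controls: cell Painting imaging in 384-well plates, CellProfiler features reduced to at least 20 principal components, Euclidean distance versus same-plate DMSO vehicle wells (0.1% v/v), median over six images per well.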
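Throughout, for surviving fraction (nuclei count normalised to DMSO): nuclei counted by high-content imaging of Hoechst-stained cells in laminin-coated 384-well plates, relative to 0.1% DMSO vehicle wells, with staurosporine as cell-death control.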

CC(C)NCC(O)c1ccc(O)c(O)c1 (stereo not drawn) [Isoproterenol hydrochloride]
Conditions	phenotypic distance	surviving fraction
E13 [7], 4.1 nM	1.71	–
E13 [7], 12.3 nM	1.34	–
E13 [7], 37 nM	1.11	–
E13 [7], 111.1 nM	0.927	–
E13 [7], 333.3 nM	0.863	–
E13 [7], 1000 nM	0.656	–
E13 [7], 3000 nM	0.895	–
E13 [14], 4.1 nM	–	0.935
E13 [14], 12.3 nM	–	0.961
E13 [14], 37 nM	–	1.01
E13 [14], 111.1 nM	–	0.949
E13 [14], 333.3 nM	–	0.974
E13 [14], 1000 nM	–	0.842
E13 [14], 3000 nM	–	1
E21 [3], 4.1 nM	1.03	–
E21 [3], 12.3 nM	0.961	–
E21 [3], 37 nM	0.559	–
E21 [3], 111.1 nM	0.37	–
E21 [3], 333.3 nM	0.707	–
E21 [3], 1000 nM	0.442	–
E21 [3], 3000 nM	0.786	–
E21 [10], 4.1 nM	–	0.983
E21 [10], 12.3 nM	–	0.836
E21 [10], 37 nM	–	0.946
E21 [10], 111.1 nM	–	0.954
E21 [10], 333.3 nM	–	0.957
E21 [10], 1000 nM	–	1.03
E21 [10], 3000 nM	–	0.989
E28 [1], 4.1 nM	1.26	–
E28 [1], 12.3 nM	0.749	–
E28 [1], 37 nM	0.577	–
E28 [1], 111.1 nM	0.661	–
E28 [1], 333.3 nM	0.903	–
E28 [1], 1000 nM	0.652	–
E28 [1], 3000 nM	0.87	–
E28 [8], 4.1 nM	–	1.14
E28 [8], 12.3 nM	–	1.19
E28 [8], 37 nM	–	1.05
E28 [8], 111.1 nM	–	1.09
E28 [8], 333.3 nM	–	1.17
E28 [8], 1000 nM	–	1.1
E28 [8], 3000 nM	–	1.22
E31 [2], 4.1 nM	3.31	–
E31 [2], 12.3 nM	0.604	–
E31 [2], 37 nM	0.63	–
E31 [2], 111.1 nM	0.645	–
E31 [2], 333.3 nM	0.706	–
E31 [2], 1000 nM	0.745	–
E31 [2], 3000 nM	0.88	–
E31 [9], 4.1 nM	–	0.999
E31 [9], 12.3 nM	–	1.05
E31 [9], 37 nM	–	0.967
E31 [9], 111.1 nM	–	0.989
E31 [9], 333.3 nM	–	1.02
E31 [9], 1000 nM	–	1.27
E31 [9], 3000 nM	–	1.24
E34 [5], 4.1 nM	0.806	–
E34 [5], 12.3 nM	0.933	–
E34 [5], 37 nM	0.861	–
E34 [5], 111.1 nM	0.633	–
E34 [5], 333.3 nM	0.9	–
E34 [5], 1000 nM	0.781	–
E34 [5], 3000 nM	0.963	–
E34 [12], 4.1 nM	–	1.03
E34 [12], 12.3 nM	–	1
E34 [12], 37 nM	–	1.13
E34 [12], 111.1 nM	–	1.09
E34 [12], 333.3 nM	–	1.15
E34 [12], 1000 nM	–	1.11
E34 [12], 3000 nM	–	1.11
E57 [4], 4.1 nM	0.878	–
E57 [4], 12.3 nM	0.696	–
E57 [4], 37 nM	0.871	–
E57 [4], 111.1 nM	1.09	–
E57 [4], 333.3 nM	1.1	–
E57 [4], 1000 nM	3.04	–
E57 [4], 3000 nM	1.28	–
E57 [11], 4.1 nM	–	1.01
E57 [11], 12.3 nM	–	0.941
E57 [11], 37 nM	–	0.999
E57 [11], 111.1 nM	–	0.974
E57 [11], 333.3 nM	–	1.12
E57 [11], 1000 nM	–	1.14
E57 [11], 3000 nM	–	1.11
FT3469 [6], 4.1 nM	1.05	–
FT3469 [6], 12.3 nM	0.977	–
FT3469 [6], 37 nM	1.54	–
FT3469 [6], 111.1 nM	0.756	–
FT3469 [6], 333.3 nM	1.08	–
FT3469 [6], 1000 nM	0.765	–
FT3469 [6], 3000 nM	1.18	–
FT3469 [13], 4.1 nM	–	0.975
FT3469 [13], 12.3 nM	–	1.04
FT3469 [13], 37 nM	–	0.928
FT3469 [13], 111.1 nM	–	1.15
FT3469 [13], 333.3 nM	–	1.18
FT3469 [13], 1000 nM	–	1.04
FT3469 [13], 3000 nM	–	1.1
